Experimental data published in patent US5750530A, “Pharmaceutical diketopiperazine compounds” (Xenova Limited, priority 1994, dated 1998).
Counter-ions that a name gives are not always drawn.

Target: PAI-1 (Homo sapiens, UniProt P05121)
Experiment: biochemical
Assay type: biochemical
Conditions: for IC50: PAI chromogenic substrate assay
Outline: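 Compound preincubated with PAI-1 before addition to a tPA system; residual tPA converts plasminogen to plasmin, which cleaves chromogenic substrate S2251. Released p-nitroaniline read at 405 nm; values given as % inhibition at set concentrations or IC50.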

PAI-1, sequence (P05121 24-402): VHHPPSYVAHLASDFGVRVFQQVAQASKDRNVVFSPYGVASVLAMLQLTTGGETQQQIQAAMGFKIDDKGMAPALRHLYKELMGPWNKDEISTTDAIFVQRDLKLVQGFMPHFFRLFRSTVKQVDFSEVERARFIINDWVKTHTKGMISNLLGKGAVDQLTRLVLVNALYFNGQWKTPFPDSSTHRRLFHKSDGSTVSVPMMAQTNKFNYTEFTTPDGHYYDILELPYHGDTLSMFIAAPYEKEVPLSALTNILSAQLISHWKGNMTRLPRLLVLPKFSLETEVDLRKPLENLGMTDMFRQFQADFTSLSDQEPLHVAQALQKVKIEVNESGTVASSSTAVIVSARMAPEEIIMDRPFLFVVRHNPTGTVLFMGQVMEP

In the case of `CN(C)CCSc1ccc(/C=c2\[nH]c(=O)/c(=C/c3ccc4c(c3)OCO4)[nH]c2=O)cc1` [Compound 5491, (3Z,6Z)-6-(4-(2-Dimethylaminoethylthio)benzylidene)-3-(3,4-methylenedioxybenzylidene)-2,5-piperazinedione], the “% Inhibition” value (5 μm) is reported as 0%, the “% Inhibition” value (20 μm) is reported as 65% and the IC50 is reported as 14.2 µM.
For `CN(C)CCSc1ccc(/C=c2\[nH]c(=O)/c(=C/c3ccc4c(c3)OCO4)[nH]c2=O)cc1` [Compound 5491.HCl, (3Z,6Z)-6-(4-(2-Dimethylaminoethylthio)benzylidene)-3-(3,4-methylenedioxybenzylidene)-2,5-piperazinedione], the “% Inhibition” value (5 μm) was 0%, the “% Inhibition” value (20 μm) was 47% and the IC50 was 20 µM.
With `CN(C)CCSc1ccc(/C=c2\[nH]c(=O)/c(=C/c3cn(C)c4ccccc34)[nH]c2=O)cc1` [Compound 5497, (3Z,6Z)-6-(4-(2-Dimethylaminoethylthio)benzylidene)-3-(1-methyl-3-indolyl)methylene-2,5-piperazinedione] the “% Inhibition” value (5 μm) was 17%, the “% Inhibition” value (20 μm) was 72% and the IC50 was 11 µM.
With `CN(C)CCSc1ccc(/C=c2\[nH]c(=O)/c(=C/c3cn(C)c4ccccc34)[nH]c2=O)cc1` [Compound 5497.HCl, (3Z,6Z)-6-(4-(2-Dimethylaminoethylthio)benzylidene)-3-(1-methyl-3-indolyl)methylene-2,5-piperazinedione] the “% Inhibition” value (5 μm) was 12%, the “% Inhibition” value (20 μm) was 59% and the IC50 was 11.5 µM.
`CN(C)CCSc1ccc(/C=c2\[nH]c(=O)/c(=C/c3c4ccccc4cc4ccccc34)[nH]c2=O)s1` [Compound 5498, (3Z,6Z)-6-(9-Anthrylmethylene)-3-(5-(2-dimethylaminoethylthio)-2-thienyl)methylene-2,5-piperazinedione] was tested, and the “% Inhibition” value (5 μm) was 15%, the “% Inhibition” value (20 μm) was 52% and the IC50 was 20 µM.
For `CN(C)CCSc1ccc(/C=c2\[nH]c(=O)/c(=C/c3c4ccccc4cc4ccccc34)[nH]c2=O)s1` [Compound 5498.HCl, (3Z,6Z)-6-(9-Anthrylmethylene)-3-(5-(2-dimethylaminoethylthio)-2-thienyl)methylene-2,5-piperazinedione], the “% Inhibition” value (5 μm) was 19%, the “% Inhibition” value (20 μm) was 71% and the IC50 was 11.5 µM.
In the case of `COc1ccc2ccccc2c1/C=c1\[nH]c(=O)/c(=C/c2ccc(SCCN(C)C)s2)[nH]c1=O` [Compound 5499, (3Z,6Z)-3-(5-(2-Dimethylaminoethylthio)-2-thienyl)methylene-6-(2-methoxy-1-naphthyl)methylene-2,5-piperazinedione], the “% Inhibition” value (5 μm) is reported as 2%, the “% Inhibition” value (20 μm) is reported as 61% and the IC50 is reported as 11.8 µM.
`COc1ccc2ccccc2c1/C=c1\[nH]c(=O)/c(=C/c2ccc(SCCN(C)C)s2)[nH]c1=O` [Compound 5499.HCl, (3Z,6Z)-3-(5-(2-Dimethylaminoethylthio)-2-thienyl)methylene-6-(2-methoxy-1-naphthyl)methylene-2,5-piperazinedione] was tested, and the “% Inhibition” value (5 μm) was 0%, the “% Inhibition” value (20 μm) was 54% and the IC50 was 18.4 µM.
With `CN(C)CCSc1ccc(/C=c2\[nH]c(=O)/c(=C/CC(C)(C)C)[nH]c2=O)s1` [Compound 5502, (3Z,6Z)-3-(5-(2-Dimethylaminoethylthio)-2-thienyl)methylene-6-(3,3-dimethyl-1-butylidene)-2,5-piperazinedione] the “% Inhibition” value (5 μm) was 0%, the “% Inhibition” value (20 μm) was 12% and the IC50 was greater than 20 µM.
In the case of `CN(C)CCSc1ccc(/C=c2\[nH]c(=O)/c(=C/CC(C)(C)C)[nH]c2=O)s1` [Compound 5502.HCl, (3Z,6Z)-3-(5-(2-Dimethylaminoethylthio)-2-thienyl)methylene-6-(3,3-dimethyl-1-butylidene)-2,5-piperazinedione], the “% Inhibition” value (5 μm) is reported as 0% and the “% Inhibition” value (20 μm) is reported as 32%.
